Test [1] has as its target T1, Protein farnesyltransferase subunit beta/geranylgeranyltransferase type-1 subunit alpha (Saccharomyces cerevisiae (strain ATCC 204508 / S288c), UniProt P22007+P29703).
T1 sequence (P22007 whole entry): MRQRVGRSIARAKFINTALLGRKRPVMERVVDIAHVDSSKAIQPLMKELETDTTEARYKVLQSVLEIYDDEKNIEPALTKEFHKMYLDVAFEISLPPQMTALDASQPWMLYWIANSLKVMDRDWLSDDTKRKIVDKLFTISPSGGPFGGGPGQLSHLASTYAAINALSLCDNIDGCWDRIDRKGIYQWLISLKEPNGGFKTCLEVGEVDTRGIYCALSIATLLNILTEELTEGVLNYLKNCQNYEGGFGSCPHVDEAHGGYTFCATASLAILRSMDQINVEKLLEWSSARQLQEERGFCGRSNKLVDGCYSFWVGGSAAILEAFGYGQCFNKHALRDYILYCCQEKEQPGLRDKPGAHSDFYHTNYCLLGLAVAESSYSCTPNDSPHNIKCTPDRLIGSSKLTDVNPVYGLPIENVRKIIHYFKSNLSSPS
T1 sequence (P29703 whole entry): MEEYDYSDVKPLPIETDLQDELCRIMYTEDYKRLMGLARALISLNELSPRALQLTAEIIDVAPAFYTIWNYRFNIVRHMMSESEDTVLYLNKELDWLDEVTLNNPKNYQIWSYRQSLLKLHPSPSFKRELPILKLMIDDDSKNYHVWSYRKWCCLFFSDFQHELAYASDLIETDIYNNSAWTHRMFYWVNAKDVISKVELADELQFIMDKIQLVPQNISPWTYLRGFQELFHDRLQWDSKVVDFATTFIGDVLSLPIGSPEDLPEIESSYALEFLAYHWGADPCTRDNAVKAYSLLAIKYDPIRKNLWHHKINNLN
Description: Yeast FTase Assay. The note with it: pH 7.5. As for the experimental part:
Assays were realized on 96-well plates, prepared with Biomek NKMC and Biomek 3000 from Beckman Coulter and read on Wallac Victor fluorimeter from Perkin-Elmer. Per well, 20 μL of farnesyl pyrophosphate (10 μM) was added to 180 μL of a solution containing 2 μL of varied concentrations of potential inhibitors (dissolved in DMSO) and 178 μL of a solution composed by 0.1 mL of partially purified recombinant yeast FTase (2.2 mg/ mL) and 7.0 mL of dansyl-GCVLS peptide (in the following buffer: 5.8 mM DTT, 6 mM MgCl2, 12 μM ZnCl2 and 0.09% (w/v) CHAPS, 53 mM Tris/HCl, pH 7.5). Then the fluorescence development was recorded for 15 min(0.7 second per well, 20 repeats) at 30°C with an excitation filter at 340 nm and an emission filter at 486 nm. Each measurement was realized twice as duplicate ortriplicate.

Test [2] concerns the target T2, Protein farnesyltransferase alpha subunit/subunit beta (Trypanosoma brucei brucei, UniProt Q9NC76+Q9NC77).
T2 sequence (Q9NC77 whole entry): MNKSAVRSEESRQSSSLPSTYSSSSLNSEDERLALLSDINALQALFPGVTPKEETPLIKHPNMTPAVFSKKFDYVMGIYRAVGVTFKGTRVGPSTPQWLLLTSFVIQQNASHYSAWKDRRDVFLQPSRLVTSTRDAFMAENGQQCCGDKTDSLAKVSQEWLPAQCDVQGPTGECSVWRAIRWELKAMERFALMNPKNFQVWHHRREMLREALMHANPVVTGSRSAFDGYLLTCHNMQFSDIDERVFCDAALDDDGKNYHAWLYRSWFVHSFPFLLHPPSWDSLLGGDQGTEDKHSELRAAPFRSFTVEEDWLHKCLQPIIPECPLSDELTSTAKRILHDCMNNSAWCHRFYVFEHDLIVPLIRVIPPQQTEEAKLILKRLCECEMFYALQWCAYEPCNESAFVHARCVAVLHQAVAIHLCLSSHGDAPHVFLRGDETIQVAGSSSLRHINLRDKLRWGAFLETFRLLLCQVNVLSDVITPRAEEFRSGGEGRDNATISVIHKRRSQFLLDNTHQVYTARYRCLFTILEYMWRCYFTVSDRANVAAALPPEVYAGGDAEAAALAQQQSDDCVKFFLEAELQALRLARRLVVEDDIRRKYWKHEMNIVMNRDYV
T2 sequence (Q9NC76 whole entry): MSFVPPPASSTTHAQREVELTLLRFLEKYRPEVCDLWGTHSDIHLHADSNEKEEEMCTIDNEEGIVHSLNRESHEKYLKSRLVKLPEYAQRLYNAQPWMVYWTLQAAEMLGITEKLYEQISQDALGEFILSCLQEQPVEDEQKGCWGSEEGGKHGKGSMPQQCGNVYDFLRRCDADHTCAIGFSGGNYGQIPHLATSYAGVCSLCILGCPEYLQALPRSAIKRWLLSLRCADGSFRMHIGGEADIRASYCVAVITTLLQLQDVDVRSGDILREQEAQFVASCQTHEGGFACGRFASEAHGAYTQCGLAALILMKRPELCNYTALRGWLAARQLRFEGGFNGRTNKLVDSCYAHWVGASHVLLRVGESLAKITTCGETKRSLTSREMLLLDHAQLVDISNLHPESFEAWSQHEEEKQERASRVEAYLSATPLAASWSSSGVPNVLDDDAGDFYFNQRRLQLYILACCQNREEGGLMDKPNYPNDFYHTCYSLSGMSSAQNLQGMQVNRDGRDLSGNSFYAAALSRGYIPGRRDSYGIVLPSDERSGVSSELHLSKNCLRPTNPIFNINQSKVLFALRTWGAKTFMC
Description: T. brucei FTase Assay. As to the method:
Assays were realized on 96-well plates, as described for human FTase with the dansylated peptide Dansyl-GCAIM and the solution contains 15 μL of partially purified Tb-FTase (1.0 mg/mL) in 1 mL peptide solution.

In test [3] the target is Protein farnesyltransferase subunit beta/geranylgeranyltransferase type-1 subunit alpha (Homo sapiens, UniProt P49354+P49356). Description: Human FTase Assay.
Description: Assays were realized on 96-well plates, as described for yeast FTase but octyl-D-glucopyranoside (0.18%) was used instead of CHAPS and the solution contains 5 μLof partially purified human FTase (1.5 mg/mL)7 in 1 mL peptide solution.

As to `CSCC[C@H](NC(=O)c1ccc(NC[C@@H](N)CS)cc1-c1ccccc1)C(=O)O` [2-{[5-((R)-2-Amino-3-mercapto-propylamino)-biphenyl-2-carbonyl]-amino}-4-methylsulfanyl-butyric acid], the half-maximal inhibitory concentration (IC50) (usually the concentration that gives 50% inhibition) came out at 0.78 nM in test [1] and 0.01 µM in test [2].

As for `CC(C)Sc1sc(C(=O)O)c(-c2cccc3oc4ccccc4c23)c1C#N` [3-(1-Dibenzofuranyl)-4-cyano-5-(isopropylthio)thiophene-2-carboxylic acid (1gg)], the concentration for half-maximal inhibition (IC50) in test [3] stood at 15 µM; in test [1], 1000 nM; in test [2] it was 3.3 µM.

Turning to `CC(C)Sc1sc(C(=O)O)c(-c2cccc3ccccc23)c1C#N` [3-(1-Naphthyl)-4-cyano-5-(isopropylthio)thiophene-2-carboxylic acid (1x)], the concentration for half-maximal inhibition (IC50) in test [3] was 32 µM; in test [1], 1100 nM; in test [2], 10.5 µM.

As to `CC(C)Sc1sc(C(=O)O)c(-c2ccccc2Cl)c1C#N` [3-(2-Chlorophenyl)-4-cyano-5-(isopropylthio)thiophene-2-carboxylic acid (1c)], the figures for the IC50 in test [3], in test [1] and in test [2] were more than 50 µM, 1400 nM and 37 µM, respectively.

Regarding `CC(C)Sc1sc(C(=O)O)c(-c2ccccc2F)c1C#N` [3-(2-Fluorophenyl)-4-cyano-5-(isopropylthio)thiophene-2-carboxylic acid (1f)], the figures for the 50% inhibitory concentration (IC50) in test [3], in test [1] and in test [2] were more than 50 µM, 1300 nM and 46 µM, respectively.

On to `COc1ccccc1-c1c(C(=O)O)sc(SC(C)C)c1C#N` [3-(2-Methoxyphenyl)-4-cyano-5-(isopropylthio)thiophene-2-carboxylic acid (1l)], for which the half-inhibitory concentration (IC50) in test [3] is more than 50 µM; in test [1], 9700 nM; in test [2], 37 µM.

With `CC(C)Sc1sc(C(=O)O)c(-c2ccc3ccccc3c2)c1C#N` [3-(2-Naphthyl)-4-cyano-5-(isopropylthio)thiophene-2-carboxylic acid (1y)], the IC50 came to 4.8 µM in test [3], 320 nM in test [1] and 9.7 µM in test [2].

For `Cc1ccccc1-c1c(C(=O)O)sc(SC(C)C)c1C#N` [3-(2-Tolyl)-4-cyano-5-(isopropylthio)thiophene-2-carboxylic acid (1v)], the figures for the half-inhibitory concentration (IC50) in test [3], in test [1] and in test [2] were more than 50 µM, 3100 nM and more than 50 µM, respectively.

As for `COC(=O)c1cccc(-c2c(C(=O)O)sc(SC(C)C)c2C#N)c1` [3-(3-(Methoxycarbonyl)phenyl)-4-cyano-5-(isopropylthio)thiophene-2-carboxylic acid (1q)], the 50% inhibitory concentration (IC50) was 7 µM in test [3], 620 nM in test [1] and 6.9 µM in test [2].

With `CC(C)Sc1sc(C(=O)O)c(-c2cccc(C(F)(F)F)c2)c1C#N` [3-(3-(Trifluoromethyl)phenyl)-4-cyano-5-(isopropylthio)thiophene-2-carboxylic acid (1h)], the concentration for half-maximal inhibition (IC50) in test [3] came out at 34 µM; in test [1], 1600 nM; in test [2], 19 µM.

With `CC(C)Sc1sc(C(=O)O)c(-c2cccc(-c3ccccc3)c2)c1C#N` [3-(3-Biphenyl)-4-cyano-5-(isopropylthio)thiophene-2-carboxylic acid (1aa)], the values for the IC50 in test [3], in test [1] and in test [2] were 3.3 µM, 640 nM and 5.4 µM, respectively.

As for `CC(C)Sc1sc(C(=O)O)c(-c2cccc(Cl)c2)c1C#N` [3-(3-Chlorophenyl)-4-cyano-5-(isopropylthio)thiophene-2-carboxylic acid (1b)], the IC50 in test [3] worked out at 48 µM; in test [1], 1300 nM; in test [2], 14.5 µM.

On to `CC(C)Sc1sc(C(=O)O)c(-c2cccc(F)c2)c1C#N` [3-(3-Fluorophenyl)-4-cyano-5-(isopropylthio)thiophene-2-carboxylic acid (1e)], for which the half-maximal inhibitory concentration (IC50) is 23 µM in test [3], 460 nM in test [1] and 32 µM in test [2].

For `COc1cccc(-c2c(C(=O)O)sc(SC(C)C)c2C#N)c1` [3-(3-Methoxyphenyl)-4-cyano-5-(isopropylthio)thiophene-2-carboxylic acid (1k)], the half-inhibitory concentration (IC50) in test [1] was determined as 1600 nM; in test [2], 18 µM.

Regarding `Cc1cccc(-c2c(C(=O)O)sc(SC(C)C)c2C#N)c1` [3-(3-Tolyl)-4-cyano-5-(isopropylthio)thiophene-2-carboxylic acid (1u)], the IC50 in test [3] was 16 µM; in test [1] it was 1400 nM; in test [2], 34 µM.

On to `COC(=O)c1ccc(-c2c(C(=O)O)sc(SC(C)C)c2C#N)cc1` [3-(4-(Methoxycarbonyl)phenyl)-4-cyano-5-(isopropylthio)thiophene-2-carboxylic acid (1p)], for which the figures for the IC50 in test [3], in test [1] and in test [2] were 12.8 µM, 85 nM and 14 µM, respectively.

The compound `CC(C)Sc1sc(C(=O)O)c(-c2ccc(C(F)(F)F)cc2)c1C#N` [3-(4-(Trifluoromethyl)phenyl)-4-cyano-5-(isopropylthio)thiophene-2-carboxylic acid (1g)] displayed a concentration for half-maximal inhibition (IC50) in test [1] of 580 nM.

In the case of `CC(C)Sc1sc(C(=O)O)c(-c2ccc(-c3ccccc3)cc2)c1C#N` [3-(4-Biphenyl)-4-cyano-5-(isopropylthio)thiophene-2-carboxylic acid (1z)], the IC50 in test [3] is 5.5 µM; in test [1], 2700 nM; in test [2], 32 µM.

Consider `CC(C)Sc1sc(C(=O)O)c(-c2ccc(Cl)cc2)c1C#N` [3-(4-Chlorophenyl)-4-cyano-5-(isopropylthio)thiophene-2-carboxylic acid (1a)], for which the half-maximal inhibitory concentration (IC50) stood at 110 nM in test [1] and 10.6 µM in test [2].

As for `CC(C)Sc1sc(C(=O)O)c(-c2ccc(F)cc2)c1C#N` [3-(4-Fluorophenyl)-4-cyano-5-(isopropylthio)thiophene-2-carboxylic acid (1d)], the concentration for half-maximal inhibition (IC50) in test [3] was 20 µM; in test [1], 270 nM; in test [2], 29 µM.

In the case of `COc1ccc(-c2c(C(=O)O)sc(SC(C)C)c2C#N)cc1` [3-(4-Methoxyphenyl)-4-cyano-5-(isopropylthio)thiophene-2-carboxylic acid (1j)], the half-maximal inhibitory concentration (IC50) in test [1] was determined as 250 nM; in test [2] it was 8.6 µM.

As for `Cc1ccc(-c2c(C(=O)O)sc(SC(C)C)c2C#N)cc1` [3-(4-Tolyl)-4-cyano-5-(isopropylthio)thiophene-2-carboxylic acid (1t)], the figures for the concentration for half-maximal inhibition (IC50) in test [3], in test [1] and in test [2] were 21 µM, 190 nM and 17 µM, respectively.

The values above are taken from BindingDB's records for doi:10.3109/14756366.2011.643302 (Centre de Recherche de Gif, 2013).
